{"source": "paper PMC4976335", "about": "“Miniaturizing VEGF: Peptides mimicking the discontinuous VEGF receptor-binding site modulate the angiogenic response” (Scientific Reports, 2016)", "molecules": {"B1": {"name": "EP6 peptide (mini-VEGF; AcHx ligated to Hn6) (peptide)", "chain": "Ac-EKFMDVYQLKYKGIC[Ahp]QIMRIKPHQGQHIGETS-NH2", "modifications": "bridge 1-15 via isopeptide; reading uncertain; also: two peptides Hx (1-14, C-terminal amide after Ile14) and Hn (15-33) joined by isopeptide bond"}}, "key": {"VEGFR2 [1]": {"tested_on": "VEGFR2", "assay": "Antagonism of VEGF-stimulated VEGFR2 phosphorylation, western blot in PAEC overexpressing VEGFR2", "format": "cell-based"}, "[2]": {"tested_on": "human umbilical vein endothelial cells (HUVECs)", "assay": "HUVEC proliferation assay (cell counting), with or without SU5614", "format": "cell-based", "conditions": "SU5614 (10 μM) alone, 0 ng/mL peptide, 72 h", "method": "As the activation of ERK1/2 pathway in ECs leads to DNA synthesis and cell proliferation, we evaluated whether EP3, EP5 and EP6 peptides were able to stimulate cell growth. A proliferation assay was performed on human umbilical vein endothelial cells (HUVECs). Cells in starvation medium were incubated with increasing concentrations (0.5, 5 and 50 ng/mL) of the selected peptides and VEGF, and cell number was counted after 72 h. […] Cell survival was evaluated by MTT assay in PAEC-VEGFR2 following stimulation with EP6 and equimolar concentration with control peptides for 48 h.\nThe same proliferation assay was repeated in HUVEC in presence of the tyrosine kinase inhibitor SU5614 (Table 1). In the presence of the inhibitor, the proliferative effect of the EP peptides was suppressed, confirming that EP-induced proliferation was correlated to VEGFR2 phosphorylation.\nHuman Umbilical Vein Endothelial Cells (HUVECs) were purchased from Lonza (Basel, Switzerland). All experiments were performed on low passage cell cultures. […]\nHUVECs were plated at density of 1500 cells/well in 96-well gelatin-coated microplates. […] Cell proliferation was evaluated as number of cells counted per well[35]."}, "VEGFR2 [3]": {"tested_on": "VEGFR2", "assay": "VEGFR2 auto-phosphorylation (agonism), anti-phospho-Tyr western blot in PAEC overexpressing VEGFR2", "format": "cell-based"}, "C57 black mice": {"tested_on": "C57 black mice", "assay": "In vivo Matrigel plug angiogenesis assay", "conditions": "500 ng/plug, subcutaneous Matrigel, 10 days, implants inspected and haemoglobin content measured (Fig. 7B)", "method": "Figure 7 In vitro and in vivo angiogenic properties of EP peptides. (A) HUVECs were plated onto a layer of basement membrane matrix (Matrigel) and incubated at 37 °C for 18 h in the presence of EP3, EP5, EP6 and VEGF (50 ng/mL). After treatment, photomicrographs of tubular structures (Top) were quantified as angiogenic index, calculated as the number of complete circles counted/field by microscope image analysis (Bottom). *p < 0.05 vs basal control. (B) In vivo Matrigel angiogenesis assay was performed by injecting Matrigel solution containing 500 ng of the selected EP peptides into the dorsal midline region of C57 black mice. […] After 10 days Matrigel implants were recovered (Top) and analyzed for their haemoglobin content (bottom). *p < 0.05 and **p < 0.01 vs Matrigel alone.\nThe pro-angiogenic activity of EP peptides was evaluated by an in vivo test, using Matrigel plugs loaded with EP3, EP5 or EP6 peptides or VEGF (500 ng/plug). […] The hemoglobin content of explanted plugs was measured by a spectrophotometric assay (Fig. 7B, Bottom).\nIn vivo Matrigel angiogenesis assay was performed as previously described. […] Plugs were resuspended in 1 ml of Drabkin’s reagent for 18 h on ice and haemoglobin concentration was determined by absorbance at 540 nm and compared with a standard curve (Sigma-Aldrich, Milan, Italy)."}, "[4]": {"molecular_target": "T1, second domain of VEGFR1 (VEGFR1D2) (UniProt P17948 129-229)", "T1 construct": "VEGFR1 (vascular endothelial growth factor receptor 1), second domain; The shifts were mapped onto the NMR structure PDB 1QSV of VEGFR1D2; also called domain 2 of VEGFR1; source: recombinant; 15N-labeled for the HSQC titration", "T1 sequence (P17948 129-229)": "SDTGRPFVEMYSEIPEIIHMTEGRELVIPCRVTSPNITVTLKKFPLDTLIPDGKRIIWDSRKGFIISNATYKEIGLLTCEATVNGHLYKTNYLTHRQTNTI", "assay": "NMR titration; 2D [15N,1H] HSQC chemical shift perturbation; 110 μM 15N-labeled VEGFR1D2, EP6 added from 27.5 to 550 μM; 20 mM Tris-HCl pH 7.5, 0.02% sodium azide, 10% 2H2O; 298 K; single-site fit, overall apparent KD as mean over the residues of the binding site", "conditions": "both partners purified"}}, "note": "Bridges are numbered along the chain shown (N, C = ends). [ ]: non-standard residue; d: D form. isopeptide = not defined here; Ahp = NCCCCCCC(=O)O", "data": [{"molecule": "Cc1cc(C)c(/C=C2\\C(=O)Nc3ccc(Cl)cc32)[nH]1", "note": "[SU5614]", "values": [{"measurement": "antagonism of VEGF-stimulated VEGFR2 phosphorylation (in words)", "setting": "VEGFR2 [1]; EP/control peptides 50 ng/mL 15 min, then VEGF 50 ng/mL 15 min, SU5614 10 μM (Fig. 2B)", "value": "inhibited"}, {"measurement": "VEGFR2 phosphorylation after VEGF, ∆ of fold increase respect to VEGF induced response", "setting": "VEGFR2 [1]; peptide 50 ng/mL pretreatment 15 min, then VEGF 50 ng/mL for additional 15 min, serum deprivation, SU5614 10 μM, western blot quantification, representative of three experiments", "value": "0.15 ± 0.05 ∆ of fold increase respect to VEGF induced response"}, {"measurement": "HUVEC proliferation, cells counted/well", "setting": "[2]", "value": "63.5 ± 8.7", "unit": "cells counted/well"}]}, {"molecule": "Vascular Endothelial Growth Factor [VEGF]", "values": [{"measurement": "VEGFR2 phosphorylation, fold increase respect to Ctr", "setting": "VEGFR2 [3]; 50 ng/mL each, 15 min at 37 °C, PAEC overexpressing VEGFR2, western blot quantification, anti-phospho-Tyr, gels representative of three experiments", "value": "6.5 ± 1.3 fold increase respect to Ctr"}, {"measurement": "VEGFR2 phosphorylation induced (in words)", "setting": "VEGFR2 [3]; 50 ng/mL, 15 min, PAEC overexpressing VEGFR2 (Fig. 2A)", "value": "induced VEGFR2 phosphorylation"}, {"measurement": "blood vessel formation / angiogenesis in Matrigel plugs (in words)", "setting": "C57 black mice", "value": "blood vessel formation was observed"}]}, {"molecule": "B1", "values": [{"measurement": "Kd", "setting": "[4]", "value": 139, "unit": "µM"}]}]}
